According to paper PMC5762315, “Inhibition of polo-like kinase 4 (PLK4): a new therapeutic option for rhabdoid tumors and pediatric medulloblastoma” (Oncotarget, 2017):
Values joined by “and” are separate entries in the source; they are usually repeats but may differ in a detail not shown here. Equal values may be shown once.

Columns and labels:
Assay in all cases: biochemical
Type in all cases: biochemical
various kinases [1] = target: various kinases (Homo sapiens, UniProt O14757); conditions: CHEK1 (CHK1)
various kinases [2] = target: various kinases (Homo sapiens, UniProt O43293); conditions: DAPK3 (ZIPK)
various kinases [3] = target: various kinases (Homo sapiens, UniProt P08069); conditions: IGF1R
various kinases [4] = target: various kinases (Homo sapiens, UniProt P16234, T674I); conditions: PDGFRA T674I
various kinases [5] = target: various kinases (Homo sapiens, UniProt P22607); conditions: FGFR3
various kinases [6] = target: various kinases (Homo sapiens, UniProt P27361); conditions: MAPK3 (ERK1)
various kinases [7] = target: various kinases (Homo sapiens, UniProt P42684); conditions: ABL2 (Arg)
various kinases [8] = target: various kinases (Homo sapiens, UniProt P49674); conditions: CSNK1E (CK1 epsilon)
various kinases [9] = target: various kinases (Homo sapiens, UniProt P54756); conditions: EPHA5
various kinases [10] = target: various kinases (Homo sapiens, UniProt P68400); conditions: CSNK2A1 (CK2 alpha 1)
various kinases [11] = target: T1, various kinases (Homo sapiens, UniProt Q13470); conditions: kinase TNK1; ZLYTE
T1 sequence (Q13470 1-666): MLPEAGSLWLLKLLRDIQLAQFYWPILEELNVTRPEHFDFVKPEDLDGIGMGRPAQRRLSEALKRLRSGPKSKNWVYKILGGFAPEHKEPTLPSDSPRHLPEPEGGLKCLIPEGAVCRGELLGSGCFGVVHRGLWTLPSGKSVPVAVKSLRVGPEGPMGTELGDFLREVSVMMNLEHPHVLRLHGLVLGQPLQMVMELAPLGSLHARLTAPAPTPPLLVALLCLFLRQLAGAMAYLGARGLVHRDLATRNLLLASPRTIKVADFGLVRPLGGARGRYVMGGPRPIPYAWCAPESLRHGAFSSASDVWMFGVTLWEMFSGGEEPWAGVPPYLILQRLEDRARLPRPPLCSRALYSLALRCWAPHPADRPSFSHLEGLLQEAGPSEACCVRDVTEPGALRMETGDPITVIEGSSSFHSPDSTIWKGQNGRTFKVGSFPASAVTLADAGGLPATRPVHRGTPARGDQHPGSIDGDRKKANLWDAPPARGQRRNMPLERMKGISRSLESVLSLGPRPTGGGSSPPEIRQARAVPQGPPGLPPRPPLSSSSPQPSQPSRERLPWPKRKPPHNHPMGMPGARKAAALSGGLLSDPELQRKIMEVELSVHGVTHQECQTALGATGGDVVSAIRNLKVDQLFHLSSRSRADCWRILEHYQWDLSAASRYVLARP

various kinases [12] = target: various kinases (Homo sapiens, UniProt Q16512); conditions: kinase PKN1 (PRK1); ZLYTE
various kinases [13] = target: various kinases (Homo sapiens, UniProt Q8WTQ7); conditions: GRK7
various kinases [14] = target: various kinases (Homo sapiens, UniProt Q9NQU5); conditions: PAK6
various kinases [15] = target: various kinases (Homo sapiens, UniProt Q9P0L2); conditions: MARK1 (MARK)
various kinases [16] = target: various kinases (Homo sapiens, UniProt Q9UQM7); conditions: CAMK2A (CaMKII alpha)
various kinases [17] = conditions: for % Inhibition Average / % Inhibition Duplicate #1 / % Inhibition Duplicate #2: ZLYTE

Sequence of various kinases (Homo sapiens, UniProt Q16512) (Q16512 whole entry): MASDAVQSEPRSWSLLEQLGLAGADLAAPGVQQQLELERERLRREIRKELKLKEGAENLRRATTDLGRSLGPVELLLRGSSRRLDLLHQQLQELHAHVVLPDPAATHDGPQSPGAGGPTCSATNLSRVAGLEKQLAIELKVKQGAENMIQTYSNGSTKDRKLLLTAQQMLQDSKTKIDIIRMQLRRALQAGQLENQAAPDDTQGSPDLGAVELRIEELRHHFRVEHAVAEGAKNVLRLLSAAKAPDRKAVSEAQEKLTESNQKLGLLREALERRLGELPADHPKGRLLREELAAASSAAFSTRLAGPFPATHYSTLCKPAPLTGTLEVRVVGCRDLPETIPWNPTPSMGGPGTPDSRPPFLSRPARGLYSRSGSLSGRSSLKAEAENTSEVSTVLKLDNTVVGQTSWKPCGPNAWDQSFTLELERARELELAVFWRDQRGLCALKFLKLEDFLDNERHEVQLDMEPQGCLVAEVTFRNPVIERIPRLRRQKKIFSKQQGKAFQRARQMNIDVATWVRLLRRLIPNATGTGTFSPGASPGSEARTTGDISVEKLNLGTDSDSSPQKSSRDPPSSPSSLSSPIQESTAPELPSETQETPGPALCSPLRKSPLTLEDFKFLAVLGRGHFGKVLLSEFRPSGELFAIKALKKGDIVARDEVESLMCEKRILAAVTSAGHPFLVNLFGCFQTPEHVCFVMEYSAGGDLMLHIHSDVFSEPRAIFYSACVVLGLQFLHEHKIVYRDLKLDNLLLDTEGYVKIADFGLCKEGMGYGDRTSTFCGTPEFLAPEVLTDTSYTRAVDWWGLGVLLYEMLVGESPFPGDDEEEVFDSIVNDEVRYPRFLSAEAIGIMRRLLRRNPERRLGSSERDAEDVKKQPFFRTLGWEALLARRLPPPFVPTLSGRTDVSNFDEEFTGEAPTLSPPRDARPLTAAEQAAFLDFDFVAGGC
Sequence of various kinases (Homo sapiens, UniProt Q9P0L2) (Q9P0L2 whole entry): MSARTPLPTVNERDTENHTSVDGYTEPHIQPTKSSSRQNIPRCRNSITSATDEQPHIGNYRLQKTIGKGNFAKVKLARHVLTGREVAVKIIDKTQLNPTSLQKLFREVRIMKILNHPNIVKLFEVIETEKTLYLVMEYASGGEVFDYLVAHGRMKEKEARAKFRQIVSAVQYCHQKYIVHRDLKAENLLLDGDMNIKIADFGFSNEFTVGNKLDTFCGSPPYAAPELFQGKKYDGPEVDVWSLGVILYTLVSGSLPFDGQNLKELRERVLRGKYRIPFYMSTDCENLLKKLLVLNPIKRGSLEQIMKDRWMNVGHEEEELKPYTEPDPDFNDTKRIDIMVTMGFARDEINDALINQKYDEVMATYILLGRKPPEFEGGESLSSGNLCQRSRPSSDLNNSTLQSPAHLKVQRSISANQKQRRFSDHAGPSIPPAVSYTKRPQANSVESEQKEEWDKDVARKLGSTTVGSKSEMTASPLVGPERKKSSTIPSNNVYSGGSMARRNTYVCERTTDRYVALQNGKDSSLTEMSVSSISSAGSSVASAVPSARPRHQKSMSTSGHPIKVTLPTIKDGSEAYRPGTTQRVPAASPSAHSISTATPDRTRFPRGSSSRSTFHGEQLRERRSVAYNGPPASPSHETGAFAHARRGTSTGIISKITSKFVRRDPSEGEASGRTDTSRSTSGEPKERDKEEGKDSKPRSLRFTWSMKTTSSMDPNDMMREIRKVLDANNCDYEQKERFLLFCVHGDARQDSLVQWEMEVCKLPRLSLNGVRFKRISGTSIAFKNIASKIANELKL
Sequence of various kinases (Homo sapiens, UniProt O14757) (O14757 whole entry): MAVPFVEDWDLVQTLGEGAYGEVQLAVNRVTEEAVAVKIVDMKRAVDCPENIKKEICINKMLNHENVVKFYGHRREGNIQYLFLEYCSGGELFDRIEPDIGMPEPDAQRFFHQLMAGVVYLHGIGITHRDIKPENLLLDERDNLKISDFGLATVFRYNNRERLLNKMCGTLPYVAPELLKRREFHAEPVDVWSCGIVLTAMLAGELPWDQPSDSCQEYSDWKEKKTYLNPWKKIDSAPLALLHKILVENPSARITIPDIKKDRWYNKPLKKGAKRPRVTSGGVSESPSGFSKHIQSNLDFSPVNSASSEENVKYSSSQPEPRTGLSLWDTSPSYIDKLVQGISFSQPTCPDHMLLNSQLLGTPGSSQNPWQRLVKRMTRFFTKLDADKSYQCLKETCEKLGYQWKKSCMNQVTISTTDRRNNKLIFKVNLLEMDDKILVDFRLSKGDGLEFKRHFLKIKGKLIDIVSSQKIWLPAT
Sequence of various kinases (Homo sapiens, UniProt P42684) (P42684 whole entry): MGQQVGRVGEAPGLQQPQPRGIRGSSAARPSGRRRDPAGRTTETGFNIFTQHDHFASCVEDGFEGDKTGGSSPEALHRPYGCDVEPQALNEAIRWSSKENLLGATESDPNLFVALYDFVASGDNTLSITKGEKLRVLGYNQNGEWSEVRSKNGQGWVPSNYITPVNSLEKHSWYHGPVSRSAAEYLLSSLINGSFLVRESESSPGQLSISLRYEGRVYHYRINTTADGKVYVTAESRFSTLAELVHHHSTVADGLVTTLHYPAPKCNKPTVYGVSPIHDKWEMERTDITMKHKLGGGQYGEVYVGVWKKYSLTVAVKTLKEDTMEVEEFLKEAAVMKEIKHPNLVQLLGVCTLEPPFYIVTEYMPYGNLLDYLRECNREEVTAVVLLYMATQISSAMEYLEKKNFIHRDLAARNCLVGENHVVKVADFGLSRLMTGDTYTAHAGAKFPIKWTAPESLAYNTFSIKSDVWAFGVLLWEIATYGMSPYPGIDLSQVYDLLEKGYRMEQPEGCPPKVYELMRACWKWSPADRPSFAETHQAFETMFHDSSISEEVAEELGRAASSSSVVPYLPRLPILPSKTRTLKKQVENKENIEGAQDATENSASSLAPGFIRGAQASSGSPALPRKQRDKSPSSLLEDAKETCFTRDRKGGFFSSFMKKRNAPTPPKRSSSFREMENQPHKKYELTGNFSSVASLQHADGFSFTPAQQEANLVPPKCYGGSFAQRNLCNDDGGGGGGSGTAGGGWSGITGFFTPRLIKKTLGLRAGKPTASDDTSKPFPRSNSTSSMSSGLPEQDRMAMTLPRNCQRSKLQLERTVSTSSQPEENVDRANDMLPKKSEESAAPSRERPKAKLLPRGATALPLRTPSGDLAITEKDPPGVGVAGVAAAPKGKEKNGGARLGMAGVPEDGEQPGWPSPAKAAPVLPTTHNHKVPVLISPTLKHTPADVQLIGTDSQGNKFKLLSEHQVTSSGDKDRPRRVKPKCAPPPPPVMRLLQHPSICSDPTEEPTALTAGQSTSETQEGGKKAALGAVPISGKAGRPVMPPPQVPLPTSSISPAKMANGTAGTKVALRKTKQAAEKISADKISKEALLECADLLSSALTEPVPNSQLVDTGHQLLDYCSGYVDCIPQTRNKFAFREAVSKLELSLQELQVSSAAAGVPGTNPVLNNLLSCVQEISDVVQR
Sequence of various kinases (Homo sapiens, UniProt Q9NQU5) (Q9NQU5 whole entry): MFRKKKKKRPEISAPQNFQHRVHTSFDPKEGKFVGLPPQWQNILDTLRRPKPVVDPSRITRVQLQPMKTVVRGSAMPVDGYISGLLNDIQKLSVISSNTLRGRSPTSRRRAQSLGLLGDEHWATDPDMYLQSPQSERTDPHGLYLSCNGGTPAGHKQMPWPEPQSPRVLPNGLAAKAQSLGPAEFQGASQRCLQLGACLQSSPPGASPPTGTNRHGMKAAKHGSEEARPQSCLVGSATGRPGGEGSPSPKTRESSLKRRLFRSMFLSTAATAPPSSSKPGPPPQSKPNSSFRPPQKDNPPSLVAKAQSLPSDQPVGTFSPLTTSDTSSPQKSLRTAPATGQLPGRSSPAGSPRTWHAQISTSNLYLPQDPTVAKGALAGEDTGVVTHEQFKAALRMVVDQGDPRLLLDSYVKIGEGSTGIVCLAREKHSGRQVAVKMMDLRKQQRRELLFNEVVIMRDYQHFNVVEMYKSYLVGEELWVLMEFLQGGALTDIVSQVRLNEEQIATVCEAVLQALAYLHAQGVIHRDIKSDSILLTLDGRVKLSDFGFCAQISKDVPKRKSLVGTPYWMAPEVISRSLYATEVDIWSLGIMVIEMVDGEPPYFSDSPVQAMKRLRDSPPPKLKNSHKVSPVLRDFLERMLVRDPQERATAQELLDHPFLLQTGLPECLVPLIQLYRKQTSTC
Sequence of various kinases (Homo sapiens, UniProt P22607) (P22607 23-806): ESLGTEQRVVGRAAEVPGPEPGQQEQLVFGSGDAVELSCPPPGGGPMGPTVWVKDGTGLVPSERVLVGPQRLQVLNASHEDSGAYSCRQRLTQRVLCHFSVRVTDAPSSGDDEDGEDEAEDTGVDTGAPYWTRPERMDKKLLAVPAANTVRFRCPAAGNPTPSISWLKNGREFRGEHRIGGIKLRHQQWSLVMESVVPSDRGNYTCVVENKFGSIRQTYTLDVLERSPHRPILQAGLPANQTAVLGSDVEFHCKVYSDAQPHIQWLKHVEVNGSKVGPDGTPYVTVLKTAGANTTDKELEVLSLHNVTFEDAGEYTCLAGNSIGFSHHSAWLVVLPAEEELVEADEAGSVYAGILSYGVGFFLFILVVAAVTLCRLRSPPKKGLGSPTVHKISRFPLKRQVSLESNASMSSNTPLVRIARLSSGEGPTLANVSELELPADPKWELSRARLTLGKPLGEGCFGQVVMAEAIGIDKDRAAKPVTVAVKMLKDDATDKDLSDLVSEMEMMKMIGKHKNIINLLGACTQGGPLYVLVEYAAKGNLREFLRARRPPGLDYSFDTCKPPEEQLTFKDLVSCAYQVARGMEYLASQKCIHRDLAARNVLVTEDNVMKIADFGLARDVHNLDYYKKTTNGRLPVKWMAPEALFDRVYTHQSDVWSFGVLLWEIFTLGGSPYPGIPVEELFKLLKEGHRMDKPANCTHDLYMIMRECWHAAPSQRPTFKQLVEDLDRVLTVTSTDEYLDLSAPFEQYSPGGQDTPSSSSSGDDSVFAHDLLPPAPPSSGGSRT

In the case of COc1ccc2c(c1)[C@]1(C[C@H]1c1ccc3c(/C=C/c4ccc(CN5C[C@@H](C)O[C@@H](C)C5)cc4)n[nH]c3c1)C(=O)N2 [CFI-400945], the “% Inhibition” value (various kinases [1]) is reported as 9% and 11%, the “% Inhibition” value (various kinases [2]) is reported as 1% and 2% and the “% Inhibition” value (various kinases [3]) is reported as 8%. For the same compound, the “% Inhibition” value (various kinases [4]) was 1% and 2%, the “% Inhibition” value (various kinases [5]) was 11% and 14% and the “% Inhibition” value (various kinases [6]) was 4%. For the same compound, the “% Inhibition” value (various kinases [7]) was 58% and 63%, the “% Inhibition” value (various kinases [8]) was 7% and 6% and the “% Inhibition” value (various kinases [9]) was 8% and 5%. The “% Inhibition” value (various kinases [10]) was 9% and 4%, the “% Inhibition Average” value (various kinases [11]) was 30% and the “% Inhibition Duplicate #1” value (various kinases [11]) was 26%. The “% Inhibition Duplicate #2” value (various kinases [11]) was 34%, the “% Inhibition Average” value (various kinases [12]) was 20% and the “% Inhibition Duplicate #1” value (various kinases [12]) was 27%. For the same compound, the “% Inhibition Duplicate #2” value (various kinases [12]) was 13%, the “% Inhibition” value (various kinases [13]) was 13% and 12% and the “% Inhibition” value (various kinases [14]) was 12% and 7%. The “% Inhibition” value (various kinases [15]) was 25% and 24%, the “% Inhibition” value (various kinases [16]) was -3% and -1% and the “% Inhibition” value (various kinases [17]; LYN B) was 7% and 9%. The “% Inhibition Average” value (various kinases [17]; kinase PRKCB2 (PKC beta II)) was 13%, the “% Inhibition Duplicate #1” value (various kinases [17]; kinase PRKCB2 (PKC beta II)) was 12% and the “% Inhibition Duplicate #2” value (various kinases [17]; kinase PRKCB2 (PKC beta II)) was 14%. The “% Inhibition Average” value (various kinases [17]; kinase SRC N1) was 14%, the “% Inhibition Duplicate #1” value (various kinases [17]; kinase SRC N1) was 14% and the “% Inhibition Duplicate #2” value (various kinases [17]; kinase SRC N1) was 14%.
